# Measurements reported in patent publication US12415819B2, “Cu- and Ni-catalyzed decarboxylative borylation reactions” (The Scripps Research Institute, priority 2017, dated 2025).
# Where “and” joins values, the source holds several entries; their conditions need not be identical. Equal values may be shown once.
# What was measured:
# in vitro = experiment: in vitro
# Protocol: 100 mM potassium phosphate buffer, pH 7.4. • 2. 10 mM MgCl2 • 3) Compound Dilution:
# Intermediate solution was prepared by diluting 5 μL of compound or control stock solution (10 mM in DMSO) with DMSO (45 μL) and 1:1 Methanol/Water (450 μL) (concentration=100 μM, 45% MeOH). Working solution was prepared by diluting 50 μL of the intermediate solution with 450 μL of 100 mM potassium phosphate buffer, pH=7.4 (centration=10 μM, 4.5% MeOH). • 4) NADPH regenerating system (final Isocitric dehydrogenase concentration=1 unit/mL at incubation) comprised:
# 10 μL/well of compound working solution or control working solution was added to all plates (T0, T5, T10, T20, T30, T60, NCF60) except the matrix blank. 80 μL/well of microsome solution was added to every plate. The mixtures of microsome solution and compound were incubated at 37° C. for about 10 min. 10 μL/well of NADPH regenerating system (pre-warmed to 37° C.) was then added to every plate to start the reaction. […] For NCF60 (abbreviation of no co-factor) no NADPH regenerating system was added, but was replaced by 10 μL/well of potassium phosphate buffer (100 mM, pH 7.4); the resulting mixture was incubated at 37° C. for 1 h.
# The reactions were then terminated with the stop solution (cold at 4° C.) containing 100 ng/mL Tolbutamide and 100 ng/mL Labetalol ([…]). The sampling plates were shaken for approximately 10 minutes, then were centrifuged at 4000 rpm for 20 min at 4° C. While centrifuging, 8 new 96 well plates were loaded with […] of HPLC grade water. 100 μL of supernatant was finally added to 300 μL of HPLC grade water and mixed for LC/MS/MS analysis.
# The equation of first order kinetics was used to calculate T1/2 and CIint(mic): […]
# [1] = molecular target: elastase in CF patient sputum (Homo sapiens (Human), UniProt P08246); experiment: Elastase inhibition assay in CF patient sputum; format: biochemical
# Sequence of elastase in CF patient sputum (P08246 30-267): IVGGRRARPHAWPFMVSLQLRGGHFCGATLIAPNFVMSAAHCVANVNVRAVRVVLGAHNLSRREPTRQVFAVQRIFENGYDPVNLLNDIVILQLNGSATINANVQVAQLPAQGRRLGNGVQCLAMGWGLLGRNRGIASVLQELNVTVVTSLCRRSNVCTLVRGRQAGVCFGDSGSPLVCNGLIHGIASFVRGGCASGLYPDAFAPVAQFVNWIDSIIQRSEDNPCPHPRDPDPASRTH
# Protocol: (§1) Serially diluted compounds in DMSO were dispensed into a 384-well black opaque plate by Echo dispenser. 0.1 μg/mL human neutrophil elastase (EPC, Catalog# SE563, Owensville, Ms.) or human sputum diluted with assay buffer (100 mM HEPES, 500 mM NaCl, 0.02% Tween 20) was added into the 384-well plate, and was incubated with different compounds at different concentrations for 30 minutes at room temperature. The final concentration of DMSO in the reaction was 0.1%. Elastase substrate MeOSuc-AAPV-AMC (Bachem, Catalog #I-1270, Torrance, CA) of 100 μM final concentration was then added into the reaction system just before enzyme kinetics were read on PheraSTAR plate reader at excitation of 380 nm and emission of 460 nm with a 3-minutes interval for 30 minutes in total. Slope of fluorescence intensity vs. time representing the Vmax of enzyme activity was calculated with MARS software. % relative inhibition was calculated as: […]
# (§2) IC50 was calculated based on the % relative inhibition curve using log(agonist) vs. response (three parameters) method with Prism software. All experiments were performed in triplicate for at least three independent times.
# (§3) Human sputum was purchased from Discovery Life Sciences (Los Osos, CA). Human sputum was diluted 1:10 in volume with assay buffer (100 mM HEPES, 500 mM NaCl, 0.02% Tween 20) followed by vigorous vortexing. The 1:10 diluted human sputum was further diluted into 1:30, 1:90, 1:270, 1:810, and 1:2430. The elastase concentration was determined by elastase inhibition assay as described above. Specifically, a series of standards of human neutrophil elastase (starting at 2 μg/mL and further diluted 1:2 in volume) were prepared in the assay buffer. The samples and standards were plated in a 384-well black solid bottom plate; the substrate MeOSuc-AAPV-AMC of 100 μM final concentration was then added into the reaction system just before enzyme kinetics were read on PheraSTAR plate reader as mentioned above. The slope of enzymatic kinetic reading was calculated by MARS software. The elastase levels of the human sputum were calculated based on the standard curve.
# Kinetic Solubility Test = format: physicochemical
# Protocol: The stock solution of each compound (10 μL; 10 mM in DMSO) was diluted with phosphate buffer solution (490 μL; 50 mM, pH 6.8). The resulting mixture was shaken for 24 h. Samples were then filtered.
# Plasma Stability Assay = format: in vitro ADME, mouse
# Protocol: Propantheline was used as the reference compound in this assay; all stock solutions were stored at −40° C. before use. • 2) Test system: CD-1 Mouse Plasma from a minimum of 20 male individuals were obtained from BioreclamationlVT (Catalog #: […]2-M; Batch #: MSE244515). EDTA-K2 was used as the anticoagulant. Procedure:
# The frozen plasma was thawed in a water bath at 37° C. prior to the experiments. The plasma was centrifuged at 4000 rpm for 5 min and the clots were removed if necessary.
# The pH was adjusted to 7.4±0.1 as necessary. An intermediate solution (1 mM) was prepared and a 100 μM dosing solution was prepared by diluting 10 μL of the intermediate solution with 90 μL 45% MeOH/H2O. Duplicate of test samples were made by mixing 98 μL of blank plasma with 2 μL of dosing solution (100 μM) to achieve the final concentration of 2 μM. Samples were incubated at 37° C. At each time point (0, 10, 30, 60, and 120 min), 400 μL of stop solution (consisting of 200 ng/mL tolbutamide and 20 ng/mL buspirone in 50% MeOH/CH3CN) was added to precipitate protein under thorough mixing. The sample plates were then centrifuged at 4,000 rpm for 10 min. An aliquot of supernatant (100 μL) was transferred from each well and mixed with 200 of μL ultrapure water. The samples were shaken at 800 rpm for about 10 min before LC-MS/MS analysis.
# Data analysis: The % remaining of test compound after incubation in plasma was calculated using following equation: Remaining=100×(PAR at Tn/PAR at T0) where PAR is the peak area ratio of analyte versus internal standard (IS) and The appointed incubation time points are T0 (0 min), Tn (n=0, 10, 30, 60, 120 min).
# LC-MS/MS condition: Each compound was analyzed by LC/MS using an ACE 5-phenyl 50×2.1 mm column (Part No. ACE-125-0502) with 0.1% formic acid in water and 0.1% formic acid in acetonitrile as the mobile phases. Tobultamide was used as the internal standard. Data collected were processed by Analyst 1.6.2 software and MultiQuant 3.0.2 software.
# [2] = molecular target: elastase in COPD patient sputum (Homo sapiens (Human), UniProt P08246); experiment: Elastase inhibition assay in COPD patient sputum; format: biochemical
# Sequence of elastase in COPD patient sputum (P08246 30-267): as above
# Protocol: as §1, §2, §3
# Caco-2 cells = experiment: in vitro; settings: Caco-2
# Protocol: Digoxin, fenoterol, and propranol were used as standards respectively. Transport Method:
# The transport buffer used in the study was HBSS with 10 mM HEPES at pH 7.40±0.05. Compounds were tested at 2 μM bi-directionally in duplicates. Digoxin was tested at […] bi-directionally in a duplicate, while fenoterol and propranolol were tested at 2 μM in A(apical) to B (basolateral) direction in duplicates. The final DMSO concentration was adjusted to less than 1%. The plate was incubated for 2 hours in a CO2 incubator at 37±1° C., with 5% CO2 at saturated humidity without shaking. All samples, after mixing with acetonitrile containing internal standard, were centrifuged at 4000 rpm for 20 min. Subsequently,100 μL supernatant solution was diluted with 100 μL distilled water for LC/MS/MS analysis. Concentrations of test and control compounds in starting solution, donor solution, and receiver solution were quantified by LC/MS/MS methodologies, using peak area ratio of analyte/internal standard. After transport assay, lucifer yellow rejection assay was applied to determine the Caco-2 cell monolayer integrity.
# Data analysis: The apparent permeability coefficient Papp (cm/s) was calculated using the equation:
# The efflux ratio was calculated using the equation: Efflux ratio=Papp(BA)/Papp(AB)
# Percent recovery was calculated using the equation: % Recovery=100×[(Vr·Cr)+(Vd·Cd)]/(Vd·C0) Where Vd is the volume in the donor chambers (0.075 mL on the apical side, 0.25 mL on the basolateral side); Cd and Cr are the final concentrations of transport compound in donor and receiver chambers, respectively.
# [3] = molecular target: T1, human neutrophil elastase (Homo sapiens (Human), UniProt P08246); experiment: Elastase inhibition assay, purified human neutrophil elastase; format: biochemical
# T1 sequence (P08246 30-247): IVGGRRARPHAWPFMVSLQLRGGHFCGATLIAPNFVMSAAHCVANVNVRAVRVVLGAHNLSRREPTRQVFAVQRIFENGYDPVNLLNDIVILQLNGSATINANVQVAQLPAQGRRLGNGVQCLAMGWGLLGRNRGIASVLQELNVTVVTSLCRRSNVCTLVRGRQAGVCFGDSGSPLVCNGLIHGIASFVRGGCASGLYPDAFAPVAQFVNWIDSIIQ
# [4] = molecular target: T1, human neutrophil elastase; experiment: Time dependence of elastase inhibition; format: biochemical
# Protocol: The procedure for the elastase inhibition assay was followed with slight modifications. 0.1 μg/mL human neutrophil elastase was incubated with a range of concentrations of inhibitors for 5, 15, 30 and 60 minutes before substrate MeOSuc-AAPV-AMC of 100 μM final concentration was added. Enzyme kinetics were read on PheraSTAR plate reader and IC50 was calculated with the method described above.
# [5] = molecular target: T1, human neutrophil elastase; experiment: Elastase inhibition assay, purified human neutrophil elastase; format: biochemical; settings: for IC50: read-out: IC50
# Protocol: as §1, with “Elastase substrate MeOSuc-AAPV-AMC (Bachem, Catalog #I-1270, Torrance, CA) of 100 μM final concentration was then added into the reaction system just before enzyme kinetics were read on PheraSTAR plate reader at excitation of 380 nm and emission of 460 nm with a 3-minutes interval for 30 minutes in total.” left out
# as §2
# [6] = mouse, microsomes, 1 h, 1 μM, pH 7.4
compound,measurement,setting,value
"COC(=O)N[C@H](C(=O)N1CCC[C@H]1C(=O)N[C@H](B(O)O)C(C)C)C(C)C [Compound 50, ((R)-1-((S)-1-((methoxycarbonyl)-L-valyl)pyrrolidine-2-carboxamido)-2-methylpropyl)boronic acid]",Extraction ratio,"in vitro; mouse, 1 μM, pH 7.4",<0.3
same,Remaining (*NCF = 60min),in vitro; [6],99.0%
same,Remaining (T = 60 min),in vitro; [6],78.5%
same,CLint scaled at 1 μM,"in vitro; mouse, microsomes, pH 7.4",< 38 mL/min/kg
same,half-life at 1 μM,"in vitro; mouse, microsomes, pH 7.4",> 2.42 h
same,microsomal CLint at 1 μM,"in vitro; mouse, microsomes, pH 7.4",< 9.6 µL/min/mg
same,IC50,[1]; CF sputum,0.51 ± 0.04 nM
same,solubility kinetic at 24 h,"Kinetic Solubility Test; aqueous buffer, kinetic from dmso stock, phosphate buffer pH 6.8, 24 h",> 74.2 µg/mL and > 200 µM
same,% Remaining (mean),"Plasma Stability Assay; CD-1 Mouse Plasma, 0 min, 2 μM, 37° C.",100.0%
same,% Remaining (mean),"Plasma Stability Assay; CD-1 Mouse Plasma, 10 min",100.5%
same,% Remaining (mean),"Plasma Stability Assay; CD-1 Mouse Plasma, 30 min",105.2%
same,% Remaining (mean),"Plasma Stability Assay; CD-1 Mouse Plasma, 60 min",88.0%
same,% Remaining (mean),"Plasma Stability Assay; CD-1 Mouse Plasma, 120 min",76.7%
same,IC50,[2],0.274 ± 0.004 nM
CC(C)[C@H](NC(=O)c1ccc(C(=O)NS(=O)(=O)c2ccc(Cl)cc2)cc1)C(=O)N1CCC[C@H]1C(=O)N[C@H](C(=O)C(F)(F)F)C(C)C [Compound 51a],CLint(liver),in vitro; MLM 0.5,76.6 mL/min/kg
same,Remaining (*NCF = 60min),"in vitro; MLM 0.5, no co-factor",91.7%
same,Remaining (T = 60 min),"in vitro; MLM 0.5, with NADPH regenerating system",52.2%
same,Kinetic Solubility pH = 6.8,"Kinetic Solubility Test; phosphate buffer pH 6.8, 24 h",119.75 μg/mL
same,solubility kinetic at 24 h,"Kinetic Solubility Test; phosphate buffer pH 6.8, 24 h",174.28 µM
same,Kinetic solubility (pH 6.8),Kinetic Solubility Test; summary table,174.28 μm
same,Caco-2 (Papp A − B),Caco-2 cells,<0.16 10^−6 cm/s
same,Caco-2 (Papp B − A),Caco-2 cells,0.61 10^−6 cm/s
same,Mean Papp A to B,Caco-2 cells,<0.08 10^−6 cm/s
same,Mean Papp B to A,Caco-2 cells,<0.12 10^−6 cm/s
same,Mean Recovery % A to B,Caco-2 cells,<74.15%
same,Mean Recovery % B to A,Caco-2 cells,<90.87%
same,% Remaining (mean),"Plasma Stability Assay; mouse, plasma, 10 min",99.0%
same,% Remaining (mean),"Plasma Stability Assay; mouse, plasma, 0.5 h",109.1%
same,% Remaining (mean),"Plasma Stability Assay; mouse, plasma, 1 h",99.5%
same,% Remaining (mean),"Plasma Stability Assay; mouse, plasma, 2 h",106.6%
same,CD-1 Mouse Plasma % Remaining @ 2 hr,"Plasma Stability Assay; mouse, plasma, 2 h",106.6%
Cc1c(-c2ccnn2-c2ccc(C#N)cc2)cc(C(=O)NCC(O)CNC(=O)c2cc(-c3ccnn3-c3ccc(C#N)cc3)c(C)n(-c3cccc(C(F)(F)F)c3)c2=O)c(=O)n1-c1cccc(C(F)(F)F)c1 [Compound 58],Ki,"[3]; 2.5, 25, 50 and 100 μM substrate, mixed model",0.0027 nM
same,Ki,[3]; purified HNE,0.0027 nM
same,IC50,[1]; CF sputum,203 ± 31.2 nM
same,LipE,[1]; CF sputum,0.77
same,inhibitory activity in patient sputum versus purified HNE (in words),[1]; sputum samples of CF and COPD patients,potencies diminished drastically
same,IC50,[4]; 5 min incubation with inhibitor,0.011 nM
same,IC50,[4]; 15 min incubation with inhibitor,0.004 nM
same,IC50,[4]; 30 min incubation with inhibitor,0.0026 nM
same,increase in potency with increasing incubation times,[4]; between 5-60 minutes,55 fold
same,LipE,[5]; Purified NHE,5.04
same,IC50,"[5]; Purified NHE, 30 minutes incubation at room temperature, 100 μM substrate",0.0111 ± 0.0002 nM
same,IC50,[5]; purified HNE,0.011 nM
same,IC50,[2],16.2 ± 2.13 nM
same,LipE,[2],1.87
